According to the NIST ThermoML archive (doi:10.1021/je901071x):
± gives the expanded uncertainty stated by the source.

Columns and labels:
[1] = 101 kPa, Liquid; for viscosity: Capillary tube (Ostwald / Ubbelohde) method; for mass density: Vibrating tube method
[2] = xn = mol fraction of the nth substance listed; settings: 101 kPa, Liquid; for viscosity: Capillary tube (Ostwald / Ubbelohde) method; for mass density: Vibrating tube method

CC(C)Cc1ccccc1 [(2-methylpropyl)benzene]
[1]
Settings | mass density [kg/m3] | viscosity [mPa·s]
303.15 K | 844.4 ± 0.9 | 0.905 ± 0.011
308.15 K | 841.1 ± 0.9 | 0.848 ± 0.01
313.15 K | 837.6 ± 0.8 | 0.784 ± 0.009

CC(C)Cc1ccccc1 [(2-methylpropyl)benzene] + CCCOC=O
[2]
Settings | mass density, 303.15 K [kg/m3] | mass density, 308.15 K [kg/m3] | mass density, 313.15 K [kg/m3] | viscosity, 303.15 K [mPa·s] | viscosity, 308.15 K [mPa·s] | viscosity, 313.15 K [mPa·s]
x2 = 0 | 844.4 ± 0.9 | 841.1 ± 0.9 | 837.6 ± 0.8 | 0.905 ± 0.011 | 0.848 ± 0.01 | 0.784 ± 0.009
x2 = 0.1508 | 848.8 ± 0.9 | 845.2 ± 0.9 | 841.4 ± 0.9 | 0.813 ± 0.01 | 0.771 ± 0.009 | 0.718 ± 0.009
x2 = 0.287 | 853.3 ± 0.9 | 849.5 ± 0.9 | 845.6 ± 0.9 | 0.743 ± 0.009 | 0.706 ± 0.008 | 0.661 ± 0.008
x2 = 0.4072 | 857.9 ± 0.9 | 854 ± 0.9 | 850 ± 0.9 | 0.687 ± 0.008 | 0.654 ± 0.008 | 0.614 ± 0.007
x2 = 0.519 | 862.9 ± 0.9 | 858.7 ± 0.9 | 854.5 ± 0.9 | 0.64 ± 0.008 | 0.61 ± 0.007 | 0.575 ± 0.007
x2 = 0.6161 | 867.7 ± 0.9 | 863.4 ± 0.9 | 859.1 ± 0.9 | 0.602 ± 0.007 | 0.575 ± 0.007 | 0.543 ± 0.007
x2 = 0.708 | 872.9 ± 0.9 | 868.5 ± 0.9 | 864 ± 0.9 | 0.569 ± 0.007 | 0.544 ± 0.007 | 0.515 ± 0.006
x2 = 0.7895 | 878 ± 0.9 | 873.4 ± 0.9 | 868.8 ± 0.9 | 0.54 ± 0.007 | 0.519 ± 0.006 | 0.492 ± 0.006
x2 = 0.8656 | 883.2 ± 0.9 | 878.4 ± 0.9 | 873.7 ± 0.9 | 0.516 ± 0.006 | 0.497 ± 0.006 | 0.471 ± 0.006
x2 = 0.9341 | 888.3 ± 0.9 | 883.4 ± 0.9 | 878.6 ± 0.9 | 0.495 ± 0.006 | 0.476 ± 0.006 | 0.451 ± 0.006

c1ccccc1 [benzene]
[1]
Settings | mass density [kg/m3] | viscosity [mPa·s]
303.15 K | 867.6 ± 0.9 | 0.569 ± 0.007
308.15 K | 863.2 ± 0.9 | 0.534 ± 0.006
313.15 K | 858.9 ± 0.9 | 0.497 ± 0.006

c1ccccc1 [benzene] + CCCOC=O
[2], x2 = 0
Settings | mass density [kg/m3] | viscosity [mPa·s]
303.15 K | 867.6 ± 0.9 | 0.569 ± 0.007
308.15 K | 863.2 ± 0.9 | 0.534 ± 0.006
313.15 K | 858.9 ± 0.9 | 0.497 ± 0.006

CCCCc1ccccc1 [butylbenzene]
[1]
Settings | mass density [kg/m3] | viscosity [mPa·s]
303.15 K | 851.3 ± 0.9 | 0.901 ± 0.011
308.15 K | 848 ± 0.9 | 0.844 ± 0.01
313.15 K | 844.6 ± 0.9 | 0.787 ± 0.009

CCCCc1ccccc1 [butylbenzene] + CCCOC=O
[2], x2 = 0
Settings | mass density [kg/m3] | viscosity [mPa·s]
303.15 K | 851.3 ± 0.9 | 0.901 ± 0.011
308.15 K | 848 ± 0.9 | 0.844 ± 0.01
313.15 K | 844.6 ± 0.9 | 0.787 ± 0.009

CC(C)c1ccccc1 [isopropylbenzene]
[1]
Settings | mass density [kg/m3] | viscosity [mPa·s]
303.15 K | 852.7 ± 0.9 | 0.69 ± 0.008
308.15 K | 849 ± 0.9 | 0.651 ± 0.008
313.15 K | 845.4 ± 0.9 | 0.611 ± 0.007

CC(C)c1ccccc1 [isopropylbenzene] + CCCOC=O
[2], x2 = 0
Settings | mass density [kg/m3] | viscosity [mPa·s]
303.15 K | 852.7 ± 0.9 | 0.69 ± 0.008
308.15 K | 849 ± 0.9 | 0.651 ± 0.008
313.15 K | 845.4 ± 0.9 | 0.611 ± 0.007

CCCOC=O [propyl methanoate]
[1]
Settings | mass density [kg/m3] | viscosity [mPa·s]
303.15 K | 893.5 ± 0.9 | 0.477 ± 0.006
308.15 K | 888.6 ± 0.9 | 0.456 ± 0.006
313.15 K | 883.8 ± 0.9 | 0.431 ± 0.005

CCCOC=O [propyl methanoate] + CC(C)Cc1ccccc1
[2], x1 = 1
Settings | mass density [kg/m3] | viscosity [mPa·s]
303.15 K | 893.5 ± 0.9 | 0.477 ± 0.006
308.15 K | 888.6 ± 0.9 | 0.456 ± 0.006
313.15 K | 883.8 ± 0.9 | 0.431 ± 0.005

CCCOC=O [propyl methanoate] + CC(C)c1ccccc1
[2]
Settings | mass density, 303.15 K [kg/m3] | mass density, 308.15 K [kg/m3] | mass density, 313.15 K [kg/m3] | viscosity, 303.15 K [mPa·s] | viscosity, 308.15 K [mPa·s] | viscosity, 313.15 K [mPa·s]
x1 = 0.1349 | 856 ± 0.9 | 852.1 ± 0.9 | 848.2 ± 0.9 | 0.652 ± 0.008 | 0.617 ± 0.007 | 0.58 ± 0.007
x1 = 0.2617 | 859.5 ± 0.9 | 855.4 ± 0.9 | 851.4 ± 0.9 | 0.617 ± 0.007 | 0.585 ± 0.007 | 0.551 ± 0.007
x1 = 0.3812 | 863.3 ± 0.9 | 859.1 ± 0.9 | 855 ± 0.9 | 0.585 ± 0.007 | 0.557 ± 0.007 | 0.526 ± 0.006
x1 = 0.487 | 867.1 ± 0.9 | 862.7 ± 0.9 | 858.5 ± 0.9 | 0.559 ± 0.007 | 0.533 ± 0.006 | 0.504 ± 0.006
x1 = 0.5882 | 871 ± 0.9 | 866.5 ± 0.9 | 862.2 ± 0.9 | 0.537 ± 0.006 | 0.513 ± 0.006 | 0.485 ± 0.006
x1 = 0.6817 | 875.1 ± 0.9 | 870.4 ± 0.9 | 866 ± 0.9 | 0.517 ± 0.006 | 0.495 ± 0.006 | 0.468 ± 0.006
x1 = 0.7675 | 879.2 ± 0.9 | 874.4 ± 0.9 | 869.8 ± 0.9 | 0.506 ± 0.006 | 0.485 ± 0.006 | 0.459 ± 0.006
x1 = 0.8499 | 883.5 ± 0.9 | 878.6 ± 0.9 | 873.9 ± 0.9 | 0.494 ± 0.006 | 0.474 ± 0.006 | 0.448 ± 0.005
x1 = 0.9277 | 888.1 ± 0.9 | 883 ± 0.9 | 878.2 ± 0.9 | 0.484 ± 0.006 | 0.464 ± 0.006 | 0.439 ± 0.005
x1 = 1 | 893.5 ± 0.9 | 888.6 ± 0.9 | 883.8 ± 0.9 | 0.477 ± 0.006 | 0.456 ± 0.006 | 0.431 ± 0.005

CCCOC=O [propyl methanoate] + CCCCc1ccccc1
[2]
Settings | mass density, 303.15 K [kg/m3] | mass density, 308.15 K [kg/m3] | mass density, 313.15 K [kg/m3] | viscosity, 303.15 K [mPa·s] | viscosity, 308.15 K [mPa·s] | viscosity, 313.15 K [mPa·s]
x1 = 0.1483 | 854.7 ± 0.9 | 851 ± 0.9 | 847.3 ± 0.9 | 0.823 ± 0.01 | 0.772 ± 0.009 | 0.723 ± 0.009
x1 = 0.2855 | 858.4 ± 0.9 | 854.6 ± 0.9 | 850.7 ± 0.9 | 0.753 ± 0.009 | 0.71 ± 0.008 | 0.667 ± 0.008
x1 = 0.4066 | 862.2 ± 0.9 | 858.2 ± 0.9 | 854.3 ± 0.9 | 0.696 ± 0.008 | 0.658 ± 0.008 | 0.619 ± 0.007
x1 = 0.5164 | 866.2 ± 0.9 | 862.1 ± 0.9 | 858 ± 0.9 | 0.649 ± 0.008 | 0.616 ± 0.007 | 0.58 ± 0.007
x1 = 0.6148 | 870.3 ± 0.9 | 866 ± 0.9 | 861.8 ± 0.9 | 0.609 ± 0.007 | 0.579 ± 0.007 | 0.546 ± 0.007
x1 = 0.7042 | 874.5 ± 0.9 | 870.1 ± 0.9 | 865.8 ± 0.9 | 0.575 ± 0.007 | 0.547 ± 0.007 | 0.517 ± 0.006
x1 = 0.7884 | 879.1 ± 0.9 | 874.5 ± 0.9 | 869.9 ± 0.9 | 0.545 ± 0.007 | 0.52 ± 0.006 | 0.491 ± 0.006
x1 = 0.8642 | 883.8 ± 0.9 | 879 ± 0.9 | 874.2 ± 0.9 | 0.519 ± 0.006 | 0.497 ± 0.006 | 0.47 ± 0.006
x1 = 0.9339 | 888.6 ± 0.9 | 883.7 ± 0.9 | 878.7 ± 0.9 | 0.498 ± 0.006 | 0.476 ± 0.006 | 0.451 ± 0.006
x1 = 1 | 893.5 ± 0.9 | 888.6 ± 0.9 | 883.8 ± 0.9 | 0.477 ± 0.006 | 0.456 ± 0.006 | 0.431 ± 0.005

CCCOC=O [propyl methanoate] + c1ccccc1
[2]
Settings | mass density, 303.15 K [kg/m3] | mass density, 308.15 K [kg/m3] | mass density, 313.15 K [kg/m3] | viscosity, 303.15 K [mPa·s] | viscosity, 308.15 K [mPa·s] | viscosity, 313.15 K [mPa·s]
x1 = 0.0918 | 869.6 ± 0.9 | 865.1 ± 0.9 | 860.6 ± 0.9 | 0.54 ± 0.007 | 0.512 ± 0.006 | 0.479 ± 0.006
x1 = 0.1874 | 871.4 ± 0.9 | 866.8 ± 0.9 | 862.3 ± 0.9 | 0.518 ± 0.006 | 0.49 ± 0.006 | 0.462 ± 0.006
x1 = 0.2822 | 873.6 ± 0.9 | 868.9 ± 0.9 | 864.3 ± 0.9 | 0.504 ± 0.006 | 0.476 ± 0.006 | 0.448 ± 0.005
x1 = 0.3785 | 875.8 ± 0.9 | 871.1 ± 0.9 | 866.5 ± 0.9 | 0.49 ± 0.006 | 0.466 ± 0.006 | 0.437 ± 0.005
x1 = 0.4767 | 878.2 ± 0.9 | 873.4 ± 0.9 | 868.7 ± 0.9 | 0.48 ± 0.006 | 0.456 ± 0.006 | 0.431 ± 0.005
x1 = 0.5772 | 880.6 ± 0.9 | 875.8 ± 0.9 | 871.1 ± 0.9 | 0.474 ± 0.006 | 0.449 ± 0.006 | 0.425 ± 0.005
x1 = 0.6802 | 883.4 ± 0.9 | 878.5 ± 0.9 | 873.7 ± 0.9 | 0.471 ± 0.006 | 0.451 ± 0.006 | 0.426 ± 0.005
x1 = 0.7854 | 886.2 ± 0.9 | 881.3 ± 0.9 | 876.5 ± 0.9 | 0.469 ± 0.006 | 0.448 ± 0.005 | 0.423 ± 0.005
x1 = 0.8924 | 889.4 ± 0.9 | 884.4 ± 0.9 | 879.5 ± 0.9 | 0.467 ± 0.006 | 0.446 ± 0.005 | 0.421 ± 0.005
x1 = 1 | 893.5 ± 0.9 | 888.6 ± 0.9 | 883.8 ± 0.9 | 0.477 ± 0.006 | 0.456 ± 0.006 | 0.431 ± 0.005
